In patent US10774084B2, “Adenine derivatives and their use as UV-photoprotective agents” (UNIVERZITA PALACKEHO V OLOMOUCI, priority 2015, dated 2020):

Tests used:
[1] = tested on: skin fibroblasts BJ and keratinocytes HaCaT; test: MTT in vitro cytotoxicity test for skin cells; format: cell-based; conditions: Homo sapiens; 72 hour treatment; table does not say which cell line (BJ, HaCaT)
Method: MTT assay is a standard test of toxicity based on photometric measurement of the ability of metabolically active cells to reduce MTT (3-(4,5-dimethylthiazol-2-yl)-2,5-diphenyltetrazolium bromide). Using the assay, the effects of 72 hour treatments with several concentrations of the compounds (sixfold dilution, maximal concentration=50 microM) on viability of skin fibroblasts BJ and keratinocytes HaCaT were evaluated. About 5,000 cells were seeded per well of a 96-well plate 24 hours before the treatment. DMSO vehiculum was used as a negative control. After 72 hour treatment, new medium with MTT (Sigma, M2128) was added to a final concentration of 0.5 mg/ml. After 3 hours, medium was removed and resulting formazan in the cells was dissolved in DMSO. The absorbance was measured at 570 nm (640 nm reference wavelength). The IC50 values were calculated from the dose-response curves. 6-furfurylaminopurine riboside was used as positive controls.

[2] = tested on: BJ human fibroblast cells; test: Calcein AM cytotoxicity assay; format: cell-based; conditions: 72 hrs
Excerpt: (§1) One of the parameters used as the base for cytotoxic analysis is metabolic activity of viable cells. Microtiter assay, which uses the Calcein AM, is now widely used to quantify cell proliferation and cytotoxicity. The quantity of […] Calcein AM corresponds to the number of viable cells in culture. The cell lines of breast cancer (MCF-7), human erythromleukemia (K562), BJ human fibroblast cells (BJ) and human keratinocyte cell line (HaCaT) were used for routine screening of cytotoxicity of the compounds. The cells were maintened in Nunc/Corning 80 cm^2 plastic bottles and grown in media for cell culture (DMEM containing 5 g/l of glucose, 2 mM of glutamin, 100 U/ml of penicilin, 100 μg/ml of streptomycin, 10% of fetal bovine serum and sodium hydrogencarbonate). Cell suspensions were diluted according to cell types and according to expected final cell density (10^4 of cells per well according to characteristics of cell growth), pippeted 80 μl of cell suspension on 96-well microtiter plates. Innoculates were stabilized by 24 hrs preincubation at 37° C. in CO2. Particular concentrations of tested compounds were added in time zero as 20 μl aliquotto wells of microtiter plates. Usually, the compounds were diluted into six concentrations in four-fold dilution series. In routine testing, the highest well concentration was 166.7 μM, of change dependent on the substance. All drug concentrations were examined in duplicates. The incubation of cells with tested derivatives lasted 72 hrs at 37° C., 100% humidity and in the atmosphere of CO2. At the end of the incubation period, the cells were tested and analysed according to the addition of Calcein AM (Molecular probes) solution and the incubation lasted for next 1 hour. Fluorescence (FD) was measured using Labsystem FIA reader Fluorskan Ascent (Microsystems). The survival of tumor cells (The tumor cell survival-TCS) was counted according to equation: […](FDwell with derivative/FDcontrol well)×100%. The value of GI50, that is equal to the concentration of compound at which 50% of tumour cells are terminated. To evaluate the antitumor activity was tested toxicity of new derivatives on panel of cell lines of different histogenetic and species origin (Tab. 6, G150 concentration given in μM). […] Effective derivatives killed tumor cells in concentrations close to 0.1 to 50. None of the newly prepared compounds only reached the value.

[3] = tested on: HaCaT; test: Calcein AM cytotoxicity assay; format: cell-based; conditions: Homo sapiens, 72 hrs
Excerpt: as §1

[4] = tested on: K562; test: Calcein AM cytotoxicity assay; format: cell-based; conditions: Homo sapiens, 72 hrs
Excerpt: as §1

[5] = tested on: MCF-7; test: Calcein AM cytotoxicity assay; format: cell-based; conditions: Homo sapiens, MCF7, 72 hrs
Excerpt: as §1

[6] = tested on: Caenorhabditis elegans strain fem-1/HT17; test: Lifespan of Caenorhabditis elegans; format: in vivo; conditions: for average lifespan / median lifespan: 25° C.; for effect on lifespan of worms (in words): Log-Rank test, Bonferroni correction
Excerpt: Caenorhabditis elegans is a model organism used for identification of compounds with possible beneficial effect on human aging and age-related diseases. The list of compounds that prolong the lifespan of C. elegans and are known to have beneficial effect on human health includes resveratrol, curcumin and many others. Some substances that prolong the lifespan of worms are also used in skin rejuvenating and anti-aging cosmetics, for example vitamin E, coenzyme Q10, green tea or pomegranade extracts and cytokinin kinetin. The Caenorhabditis elegans strain used in this experiment was fem-1/HT17. This strain has a heat-inducible mutation which causes all worms to develop into females when cultivated in 25° C. (13). That prevents further reproduction and contamination of the experiment with progeny. Compounds dissolved in DMSO (100 mM stock solutions) were added into fresh NGM (nematode growth medium) to the final concentration of 10 and 50 or 100 μM and pipetted onto a Petri dish. Medium with DMSO vehiculum alone and non-treated medium were used as negative control. After solidification of NGM, the plates were seeded with 100 μl of 20× concentrated overnight suspension of Escherichia coli strain OP50 in LB medium. Bacteria on plates were allowed to grow overnight in 37° C. Age synchronized young adults (obtained by hypochlorite treatment) were then pipetted onto plates. Plates were kept in 25° C. In regular time intervals (1-3 days), the plates were scanned on an Epson perfection V700 photo flatbed scanner. The number of surviving worms was established by image analysis based on comparison of several subsequent photographs and identification of moving objects. Pictures were analyzed in Fiji similarly as described here. Scripts from the original publication were slightly modified and the parameters adjusted to better suit our photo resolution and lighting. Three subsequent pictures of a plate were compared with each other. The average of the 3 resulting numbers was used to reduce the possibility of error. The overall results were then analyzed in programs OASIS and ED50v10. The statistical significance was evaluated by Log-Rank test and P-values were corrected by Bonferroni correction.

Row | SMILES | IC50 [1] | GI50 [2] | GI50 [3] | GI50 [4] | GI50 [5] | average lifespan ([6]; 10 μM in NGM) | median lifespan ([6]; 10 μM in NGM) | average lifespan ([6]; 100 μM in NGM) | median lifespan ([6]; 100 μM in NGM) | effect on lifespan of worms (in words) [6]
1 | c1nc(NCC2CCCO2)c2ncn(C3CCCO3)c2n1 (centres unmarked) [Compound 1, 6-(tetrahydrofuran-2-ylmethylamino)-9-(tetrahydrofuran-2-yl)purine] | > 100 µM | > 100 µM | > 100 µM | > 100 µM | > 100 µM | 11.9 days | 10.3 days | 12.6 days | 10.2 days | significantly prolonged
2 | Clc1nc(NCc2ccco2)c2ncn(C3CCCO3)c2n1 (centres unmarked) [Compound 15, 2-chloro-6-furfurylamino-9-(tetrahydrofuran-2-yl)purine] | > 100 µM |  |  |  |  | 11.3 days | 9.4 days | 13.8 days | 10.3 days | 
3 | Clc1nc(NCC2CCCO2)c2ncn(C3CCCO3)c2n1 (centres unmarked) [Compound 20, 2-chloro-6-(tetrahydrofuran-2-ylmethylamino)-9-(tetrahydrofuran-2-yl)purine] |  | > 100 µM | > 100 µM | > 100 µM | > 100 µM | 12.4 days | 11.2 days | 11.2 days | 10.2 days | significantly prolonged
4 | c1csc(CNc2ncnc3c2ncn3C2CCCO2)c1 (centres unmarked) [Compound 9, 6-(thiophen-2-ylmethylamino)-9-(tetrahydrofuran-2-yl)purine] | > 100 µM | > 100 µM | > 100 µM | > 100 µM | > 100 µM |  |  |  |  | 
